Assay results: US20190070140A1, “COMPOSITION COMPRISING PROTECTIN DX AS ACTIVE INGREDIENT FOR PREVENTING OR TREATING HYPERLIPIDEMIA OR FATTY LIVER DISEASE” (Solvit P&F, priority 2017, published 2019)

Legend:
HepG2 cells = test: Palmitate-induced TG accumulation in HepG2 cells, Oil-Red-O staining with isopropyl alcohol extraction; format: cell-based, Human
Method: Human liver cells, that is, HepG2 cells (ATCC, Manassas, Va., USA) were cultured in high-glucose Dulbecco's modified eagle medium (DMEM, Invitrogen, Carlsbad, Calif., USA), which includes 10% fetal bovine serum (FBS, Invitrogen), 100 units/mL of penicillin and 100 μg/ml of streptomycin. The cells were incubated at 37° C. under a condition of 5% CO2.
Mycoplasma was not detected in HepG2 cells. PDX (Cayman Chemical, Ann Arbor, Mich., USA) was dissolved in ethanol. Sodium palmitate (Sigma, St. Louis, Mo., USA) was mixed with 2% BSA (fatty acid free level; Sigma) in DMEM. […] In all experiments, the cells were treated with palmitate-BSA and PDX for 24 hours, while 2% BSA-ethanol was used as a control group.
HepG2 cells and a cut section of the liver in a mouse were stained by Oil-Red-O staining method, in order to determine cellular triglyceride such as triglyceride, that is, TG. The liver cells were fixed with 10% formalin for 40 minutes, and then stained with Oil-Red-O solution (Sigma) at 37° C. for 1 hour. A content of Oil-Red-O stained TG was quantified by adding isopropanol to each of the samples. The mixture was gently stirred at 25° C. for 8 minutes. Lastly, 100 μl of isopropanol-extracted sample was analyzed by a spectrophotometer at 510 nm.
In the presence of 200 μM palmitate and PDX (0 to 2 μm), HepG2 cells were subjected to Oil-Red-O staining for 24 hours, while TG accumulation was quantified by isopropyl alcohol extraction.
Further, the present inventors have executed Oil-Red-O staining with respect to palmitate-treated HepG2 cells for 24 hours. TG accumulation was quantified by extraction using isopropyl alcohol.

FOXO1 = test: Western-blot assay of FOXO1 acetylation in HepG2 cells (immuno-precipitation); format: cell-based, Human; details: 0 to 2 μM PDX, 24 hours, FIG. 3B
Method: After collecting HepG2 cells, protein was extracted from the cells with a buffer (PRO-PREF; Intron Biotechnology, Seoul, Korea) at 4° C. for 1 hour. A protein sample (35 μg) was applied to 12% SDS-PAGE, transferred to a nitrocellulose film (Amersham Bioscience, Westborough, Mass., USA), detected with a primary antibody, followed by probing with a secondary antibody and another secondary antibody conjugated with horseradish […] (Santa Cruz Biotechnology). The sample was detected by ECL kit. Whole protein of HepG2 cell was extracted using an immune-precipitation buffer (IP buffer: 50 mM Tris-HCl, pH 7.8, 150 mM NaCl, 1% IGEPAL CA630) and then diluted to a concentration of 1 mg/mL. A polyclonal antibody to FOXO1 (Santa Cruz Biotechnology) diluted 1:150 was added to the mixture and the sample was incubated at 4° C. overnight. After incubation, each of the samples was provided with 50 μL of a protein A/G-Sepharose bead suspension (Santa Cruz Biotechnology), followed by gently mixing the same at 4° C. for 1 hour. The treated samples were subjected to centrifugation at 12,000 rpm for 30 seconds; and the beads were washed in IP buffer three times. The isolated beads were suspended again in 1×SDS-PAGE loading buffer, heated at 95° C. for 5 minutes, followed by vortexing and flash-centrifugation. […]

SREBP1, FAS and SCD1 = test: Western-blot assay of adipogenesis-related genes in livers of HFD mice; format: in vivo, mouse; details: PDX i.p. 1 μg/mice/day for 8 weeks, vs HFD, FIG. 5B
Method: (§1) The present study has received the approval of the Institutional Animal Review Committee (Institutional Animal Care and Use Committee in Korea University, Seoul, Korea). The animal experiment was conducted according to the Guide for Care and Use of Laboratory Animals (NH publication, 8th Ed., 2011). A control group and a group of male C57BL/6J(B6) mice at 8 weeks of age were subjected to a normal diet (ND, Brogaarden, Gentofte, Denmark) and a high fat diet (HFD, Research Diets, New Brunswick, N.J., USA) for 8 weeks, respectively. The HFD (high fat diet) group was provided with intra-peritoneal injection of PDX for 8 weeks (1 μg/mice/day). An ethanol injection group was used as a control group. […] A protein sample (35 μg) was applied to 12% SDS-PAGE, transferred to a nitrocellulose film (Amersham Bioscience, Westborough, Mass., USA), detected with a primary antibody, followed by probing with a secondary antibody and another secondary antibody conjugated with horseradish […] (Santa Cruz Biotechnology). The sample was detected by ECL kit. The present inventors have assessed PDX effects upon lipid accumulation in a mouse. For this purpose, a liver cut section from a mouse was subjected to histological assay and western-blot assay through H&E staining and Oil-Red-O staining, while TG accumulation was measured using a TG analysis kit.

ORP150 = test: Western-blot assay of ORP150 expression in livers of HFD mice; format: in vivo, mouse; details: PDX i.p. 1 μg/mice/day for 8 weeks, FIG. 5D
Method: as §1

adiponectin = test: Adiponectin level in blood serum of HFD mice; format: in vivo, mouse; details: PDX i.p. 1 μg/mice/day for 8 weeks, FIG. 5E
Method: The present study has received the approval of the Institutional Animal Review Committee (Institutional Animal Care and Use Committee in Korea University, Seoul, Korea). The animal experiment was conducted according to the Guide for Care and Use of Laboratory Animals (NH publication, 8th Ed., 2011). A control group and a group of male C57BL/6J(B6) mice at 8 weeks of age were subjected to a normal diet (ND, Brogaarden, Gentofte, Denmark) and a high fat diet (HFD, Research Diets, New Brunswick, N.J., USA) for 8 weeks, respectively. The HFD (high fat diet) group was provided with intra-peritoneal injection of PDX for 8 weeks (1 μg/mice/day). An ethanol injection group was used as a control group.

SMILES: CC/C=C\C[C@H](O)/C=C/C=C\C=C\[C@@H](O)C/C=C\C/C=C\CCC(=O)O [PDX, 10S,17S-dihydroxy-docosa-4Z,7Z,11E,13Z,15E,19Z-hexaeonic acid]
- palmitate-induced TG accumulation (HepG2 cells; 200 μM palmitate, PDX 0 to 2 μm, 24 hours, FIG. 1A): inhibited
- TG accumulation inhibitory effects of PDX (HepG2 cells; palmitate, silencing ORP150, FIG. 2B): reduced
- palmitate-induced TG accumulation (HepG2 cells; scramble siRNA, PDX administration, FIG. 2B): inhibited
- PDX effects of reducing FOXO1 acetylation (FOXO1; HepG2 cells transfected with AMPK siRNA): inhibited
- FOXO1 acetylation (FOXO1; HepG2 cells, scramble siRNA): reduced depending upon PDX concentration
- expression of adipogenesis-related genes SREBP1, FAS and SCD1 in the liver (SREBP1, FAS and SCD1): significantly reduced
- ORP150 expression suppressed in the liver by HFD (ORP150): remarkably recovered
- level of adiponectin in blood serum (adiponectin): increased
